Measurements as given in article PMC3711124 (Biochemistry, 2008).
No end group written: not given here.

Key:
[1] = Circular dichroism of E5TM in DPC micelles; assay type: physicochemical; conditions: CD, 5°C-95°C in 10°C increments, 15 mM DPC, pH 7.5, 114 μM peptide
[2] = biological target: the molecule itself; assay: AUC

| Molecule | thermal stability of α-helical structure [1] | stoichiometry N [2] |
| --- | --- | --- |
| Ac-KKKFLGLVAAMQLLLLLFLLLFFLVYWDHK [E5TM] | Only a small decrease in α-helical structure was observed |  |
| KKKFLGLVAAMQLLLLLFLLLFFLVYWDHK (also: end-caps on C- and N-termini, not given here) [E5TM peptide (transmembrane domain of the bovine papillomavirus E5 protein, residues F9-H34, with fl] |  | 2 |
